Data reported in patent publication US20230131535A1, “ARYLMETHYLENE AROMATIC COMPOUNDS AS Kv1.3 POTASSIUM SHAKER CHANNEL BLOCKERS” (D. E. Shaw Research, LLC, priority 2019, published 2023).
Like-named read-outs stand apart in the source and are kept apart here.

Key:
hERG channel = target: T1, hERG channel (Homo sapiens, UniProt Q12809); test: hERG electrophysiology, automated whole-cell patch clamp (Patchliner); type: cell-based; conditions: CHO-K1 cells stably expressing hERG, whole cell current, tail current protocol, read-out: hERG_IC50
T1 construct: expressed in transfected cells
T1 sequence (Q12809 whole entry): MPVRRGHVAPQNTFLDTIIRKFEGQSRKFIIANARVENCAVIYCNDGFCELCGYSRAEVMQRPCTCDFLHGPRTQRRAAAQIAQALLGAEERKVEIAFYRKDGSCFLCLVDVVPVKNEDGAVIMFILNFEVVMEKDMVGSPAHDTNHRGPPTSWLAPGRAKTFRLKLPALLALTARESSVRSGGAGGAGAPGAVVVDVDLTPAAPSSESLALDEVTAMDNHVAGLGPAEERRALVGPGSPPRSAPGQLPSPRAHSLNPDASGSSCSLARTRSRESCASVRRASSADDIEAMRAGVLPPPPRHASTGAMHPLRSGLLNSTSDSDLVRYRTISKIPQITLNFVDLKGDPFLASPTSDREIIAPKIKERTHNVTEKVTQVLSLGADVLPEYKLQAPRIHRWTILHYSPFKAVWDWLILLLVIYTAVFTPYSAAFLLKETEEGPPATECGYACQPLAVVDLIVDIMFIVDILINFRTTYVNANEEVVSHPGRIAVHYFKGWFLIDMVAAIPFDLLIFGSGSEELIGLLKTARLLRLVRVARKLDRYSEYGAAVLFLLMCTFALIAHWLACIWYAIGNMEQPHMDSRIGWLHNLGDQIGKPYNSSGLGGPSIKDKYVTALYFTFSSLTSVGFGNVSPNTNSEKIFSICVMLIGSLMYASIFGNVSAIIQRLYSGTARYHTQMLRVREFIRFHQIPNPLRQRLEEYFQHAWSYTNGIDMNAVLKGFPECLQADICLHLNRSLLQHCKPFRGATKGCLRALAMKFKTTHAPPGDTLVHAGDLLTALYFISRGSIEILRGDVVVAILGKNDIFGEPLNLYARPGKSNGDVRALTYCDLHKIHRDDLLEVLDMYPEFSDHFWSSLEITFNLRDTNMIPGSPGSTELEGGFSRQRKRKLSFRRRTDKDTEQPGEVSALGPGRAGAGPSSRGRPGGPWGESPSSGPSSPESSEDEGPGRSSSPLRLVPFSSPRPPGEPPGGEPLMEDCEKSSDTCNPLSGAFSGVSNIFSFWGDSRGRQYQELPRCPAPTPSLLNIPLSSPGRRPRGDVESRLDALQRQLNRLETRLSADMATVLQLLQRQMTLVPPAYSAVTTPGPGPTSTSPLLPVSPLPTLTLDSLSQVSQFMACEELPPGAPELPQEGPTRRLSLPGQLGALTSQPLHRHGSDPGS
Protocol: Example 68. Evaluation of hERG Activities
This assay is used to evaluate the disclosed compounds' inhibition activities against the hERG channel.
CHO-K1 cells stably expressing hERG were grown in Ham's F-12 Medium with Glutamine containing 10% heat-inactivated FBS, 1% Penicillin/Streptomycin, Hygromycin (100 μg/ml) and G418 (100 μg/ml). Cells were grown in culture flasks at 37° C. in a 5% CO2-humidified incubator.
(§1) The cells were bathed in an extracellular solution containing 140 mM NaCl, 4 mM KCl, 2 mM CaCl2), 1 mM MgCl2, 5 mM Glucose, 10 mM HEPES; pH adjusted to 7.4 with NaOH; 295-305 mOsm. The internal solution contained 50 mM KCl, 10 mM NaCl, 60 mM KF, 20 mM EGTA, 10 mM HEPES; pH adjusted to 7.2 with KOH; 285 mOsm. All compounds were dissolved in DMSO at 30 mM. Compound stock solutions were freshly diluted with external solution to concentrations of 30 nM, 100 nM, 300 nM, 1 μM, 3 μM, 10 μM, 30 μM and 100 μM. The highest content of DMSO (0.3%) was present in 100 μM.
The voltage protocol (see Table 5) was designed to simulate voltage changes during a cardiac action potential with a 300 ms depolarization to +20 mV (analogous to the plateau phase of the cardiac action potential), a repolarization for 300 ms to −50 mV (inducing a tail current) and a final step to the holding potential of −80 mV. The pulse frequency was 0.3 Hz. Control (compound-free) and compound pulse trains for each compound concentration applied contained 70 pulses.
Whole cell current recordings and compound application were enabled by means of an automated patch clamp platform Patchliner (Nanion). EPC 10 patch clamp amplifier (HEKA) along with Patchmaster software (HEKA Elektronik Dr. Schulze GmbH) was used for data acquisition. Data were sampled at 10 kHz without filtering. Increasing compound concentrations were applied consecutively to the same cell without washouts in between.
(§2) AUC and PEAK values were obtained with Patchmaster (HEKA Elektronik Dr. Schulze GmbH). To determine IC50 the last single pulse in the pulse train corresponding to a given compound concentration was used. Obtained AUC and PEAK values in the presence of compound were normalized to control values in the absence of compound. Using Origin (OridinLab), IC50 was derived from data fit to Hill equation: Icompound/Icontrol=(100−A)/(1+([compound]/IC50)nH)+A, where IC50 is the concentration at which current inhibition is half-maximal, [compound] is the applied compound concentration, A is the fraction of current that is not blocked and nH is the Hill coefficient.

Kv1.3 potassium channel = target: T2, Kv1.3 potassium channel (Homo sapiens, UniProt P22001); test: Kv1.3 potassium channel blocker activity, automated whole-cell patch clamp (Patchliner); type: cell-based; conditions: CHO-K1 cells stably expressing Kv1.3, whole cell current, pulses -90 mV to +40 mV, read-out: Kv1.3_IC50
T2 construct: expressed in transfected cells
T2 sequence (P22001 whole entry): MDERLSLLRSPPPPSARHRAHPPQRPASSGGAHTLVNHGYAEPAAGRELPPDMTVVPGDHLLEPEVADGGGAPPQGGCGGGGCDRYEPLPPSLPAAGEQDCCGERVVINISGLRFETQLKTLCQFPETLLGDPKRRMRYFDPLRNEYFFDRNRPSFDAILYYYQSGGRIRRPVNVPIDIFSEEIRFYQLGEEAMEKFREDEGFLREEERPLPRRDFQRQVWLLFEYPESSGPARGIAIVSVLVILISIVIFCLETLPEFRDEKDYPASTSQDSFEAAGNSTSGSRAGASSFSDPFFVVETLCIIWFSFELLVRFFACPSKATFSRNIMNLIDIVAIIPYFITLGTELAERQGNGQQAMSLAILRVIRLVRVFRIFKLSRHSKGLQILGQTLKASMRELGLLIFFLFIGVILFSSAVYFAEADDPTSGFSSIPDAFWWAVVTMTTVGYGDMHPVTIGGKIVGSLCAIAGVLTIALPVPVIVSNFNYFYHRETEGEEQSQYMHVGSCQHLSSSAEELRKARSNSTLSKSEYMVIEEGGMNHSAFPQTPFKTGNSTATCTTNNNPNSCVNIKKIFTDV
Protocol: Example 67. Evaluation of Kv1.3 Potassium Channel Blocker Activities
The assay described below is used to evaluate the disclosed compound's activities as Kv1.3 potassium channel blockers.
CHO-K1 cells stably expressing Kv1.3 were grown in DMEM containing 10% heat-inactivated FBS, 1 mM Sodium Pyruvate, 2 mM L-Glutamine and G418 (500 μg/ml). Cells were grown in culture flasks at 37° C. in a 5% CO2-humidified incubator.
as §1
The currents were evoked by applying 100 ms depolarizing pulses from −90 mV (holding potential) to +40 mV were applied with 0.1 Hz frequency. Control (compound-free) and compound pulse trains for each compound concentration applied contained 20 pulses. 10 second breaks were used between pulse trains (see Table 4 below).
Whole cell current recordings and compound application were enabled by means of an automated patch clamp platform Patchliner (Nanion Technologies GmbH). EPC 10 patch clamp amplifier (HIEKA Elektronik Dr. Schulze GmbH) along with Patchmaster software (HIEKA Elektronik Dr. Schulze GmbH) was used for data acquisition. Data were sampled at 10 kHz without filtering. Passive leak currents were subtracted online using a P/4 procedure (HEKA Elektronik Dr. Schulze GmbH). Increasing compound concentrations were applied consecutively to the same cell without washouts in between. Total compound incubation time before the next pulse train was not longer than 10 seconds. Peak current inhibition was observed during compound equilibration.
as §2, with “AUC and peak values were” for “AUC and PEAK values were”, “To determine IC50, the last” for “To determine IC50 the last”, “AUC and peak values in” for “AUC and PEAK values in”, “where IC50 value is the” for “where IC50 is the”

Row | SMILES | IC50 (Kv1.3 potassium channel; Table 6) | also measured
1 | Nc1cc(Cc2cc(Cl)c(Cl)cc2O)ccn1 [Compound 2, 2-[(2-aminopyridin-4-yl)methyl]-4,5-dichlorophenol] | < 10 µM | IC50 (hERG channel; Table 6): < 30 µM
2 | CC(=O)NC(c1ccncc1)c1c(O)ccc(Cl)c1Cl (single isomer, unassigned) [Compound 41, N-((2,3-dichloro-6-hydroxyphenyl)(pyridin-4-yl)methyl)acetamide] | < 1 µM | IC50 (hERG channel; Table 6): > 30 µM
3 | C[C@@H](NC(=O)[C@H]1CCCNC1)c1c(O)ccc(Cl)c1Cl [Compound 78, (3S)-N-[(1R)-1-(2,3-dichloro-6-hydroxyphenyl)ethyl]piperidine-3-carboxamide] |  | IC50 (hERG channel; Table 7): > 30 µM; IC50 (Kv1.3 potassium channel; Table 7): < 1 µM
4 | Cc1cc(O)c([C@H](N)CNC(=O)C2CNC2)cc1Cl [Compound 94, N-[(2S)-2-amino-2-(5-chloro-2-hydroxy-4-methylphenyl)ethyl]azetidine-3-carboxamide] |  | IC50 (hERG channel; Table 7): > 30 µM; IC50 (Kv1.3 potassium channel; Table 7): < 1 µM
5 | Cc1cnccc1C(O)c1c(O)ccc(Cl)c1Cl (single isomer, unassigned) [Compound 46, 3,4-dichloro-2-[hydroxy(3-methylpyridin-4-yl)methyl]phenol] | < 1 µM | IC50 (hERG channel; Table 6): > 30 µM
6 | Cc1cnccc1C(O)c1c(O)ccc(Cl)c1Cl (centres unmarked) [Compound 39, 3,4-dichloro-2-[hydroxy(3-methylpyridin-4-yl)methyl]phenol] | < 1 µM | IC50 (hERG channel; Table 6): > 30 µM
7 | O=C(NC(c1ccncc1)c1c(O)ccc(Cl)c1Cl)C1CNC1 (single isomer, unassigned) [Compound 50, N-[(2,3-dichloro-6-hydroxyphenyl)(pyridin-4-yl)methyl]azetidine-3-carboxamide] | < 1 µM | IC50 (hERG channel; Table 6): > 30 µM
8 | Oc1ccc(Cl)c(Cl)c1C(O)c1ccncc1 (single isomer, unassigned) [Compound 37, 3,4-dichloro-2-(hydroxy(pyridin-4-yl)methyl)phenol] | < 1 µM | IC50 (hERG channel; Table 6): > 30 µM
9 | Cc1cnccc1C(NC(=O)C1CNC1)c1c(O)ccc(Cl)c1Cl (centres unmarked) [Compound 9, N-[(2,3-dichloro-6-hydroxyphenyl)(3-methylpyridin-4-yl)methyl]azetidine-3-carboxamide] | < 1 µM | IC50 (hERG channel; Table 6): > 30 µM
10 | NC(c1ccncc1)c1c(O)ccc2ccccc12 (centres unmarked) [Compound 17, 1-[amino(pyridin-4-yl)methyl]naphthalen-2-ol] | < 10 µM | IC50 (hERG channel; Table 6): < 30 µM
11 | Nc1cc(C(O)c2c(O)ccc(Cl)c2Cl)ccn1 (single isomer, unassigned) [Compound 44, 2-[(2-aminopyridin-4-yl)(hydroxy)methyl]-3,4-dichlorophenol] | < 30 µM | 
12 | O=C(N[C@H](c1ccncc1)c1c(O)ccc(Cl)c1Cl)[C@H]1CCCN1 (single isomer, unassigned) [Compound 66] | < 30 µM | 
13 | COc1ccc(Cl)c(Cl)c1C(N)c1ccncc1 (centres unmarked) [Compound 70, 1-(2,3-dichloro-6-methoxyphenyl)-1-(pyridin-4-yl)methanamine] | < 30 µM | 
14 | NC(c1ccccc1)c1cc(Cl)c(Cl)cc1O (centres unmarked) [Compound 5, 2-[amino(phenyl)methyl]-4,5-dichlorophenol] | < 30 µM | 
15 | NC(=O)c1ccc(C(N)c2cc(Cl)c(Cl)cc2O)cc1 (centres unmarked) [Compound 13, 4-[amino(4,5-dichloro-2-hydroxyphenyl)methyl]benzamide] | < 10 µM | 
16 | C[C@H](NC(=O)[C@H](O)CO)c1c(O)ccc(Cl)c1Cl [Compound 84, (2R)-N-[(1S)-1-(2,3-dichloro-6-hydroxyphenyl)ethyl]-2,3-dihydroxypropan-amide] |  | IC50 (Kv1.3 potassium channel; Table 7): < 10 µM

Row | SMILES | IC50 (Kv1.3 potassium channel; Table 6) | also measured
17 | Oc1ccc(Cl)c(Cl)c1C(O)c1cccc2[nH]ccc12 (centres unmarked) [Compound 51, 3,4-dichloro-2-[hydroxy(1H-indol-4-yl)methyl]phenol] | < 10 µM | 
18 | Oc1ccc(Cl)c(Cl)c1C(O)c1c[nH]c2ccccc12 (centres unmarked) [Compound 59, 3,4-dichloro-2-[hydroxy(1H-indol-3-yl)methyl]phenol] | < 30 µM | 
19 | NCc1cc(C(O)c2c(O)ccc(Cl)c2Cl)ccn1 (single isomer, unassigned) [Compound 47, 2-((2-(aminomethyl)pyridin-4-yl)(hydroxy)methyl)-3,4-dichlorophenol] | < 30 µM | 
20 | C[C@H](NC(=O)[C@@H](O)CO)c1c(O)ccc(Cl)c1Cl [Compound 85, (2S)-N-[(1S)-1-(2,3-dichloro-6-hydroxyphenyl)ethyl]-2,3-dihydroxypropan-amide] |  | IC50 (Kv1.3 potassium channel; Table 7): < 10 µM
21 | Oc1ccc2ccccc2c1C(O)c1ccncc1 (centres unmarked) [Compound 32, 1-[hydroxyl(pyridin-4-yl)methyl]naphthalen-2-ol] | < 10 µM | 
22 | CN1CC(C(=O)NC(c2ccncc2)c2c(O)ccc(Cl)c2Cl)C1 (single isomer, unassigned) [Compound 72, N-[(2,3-dichloro-6-hydroxyphenyl)(pyridin-4-yl)methyl]-1-methylazetidine-3-carboxamide] | < 1 µM | 
23 | CC(=O)NCc1cc(C(O)c2c(O)ccc(Cl)c2Cl)ccn1 (centres unmarked) [Compound 33, N-([4-[(2,3-dichloro-6-hydroxyphenyl)(hydroxy)methyl]pyridin-2-yl]methyl)acetamide] | < 10 µM | 
24 | NC(c1cn[nH]c1)c1cc(Cl)c(Cl)cc1O (centres unmarked) [Compound 10, 2-[amino(1H-pyrazol-4-yl)methyl]-4,5-dichlorophenol] | < 10 µM | 
25 | Oc1ccc(Cl)c(Cl)c1C(O)c1ccc2cc[nH]c2c1 (centres unmarked) [Compound 48, 3,4-dichloro-2-[hydroxy(1H-indol-6-yl)methyl]phenol] | < 10 µM | 
26 | N#Cc1cc(C(O)c2c(O)ccc(Cl)c2Cl)ccn1 (centres unmarked) [Compound 30, 4-[(2,3-dichloro-6-hydroxyphenyl)(hydroxy)methyl]pyridine-2-carbonitrile] | < 10 µM | 
27 | O=C(NC(c1ccncc1)c1c(O)ccc(Cl)c1Cl)C1CNC1 (single isomer, unassigned) [Compound 49, N-[(2,3-dichloro-6-hydroxyphenyl)(pyridin-4-yl)methyl]azetidine-3-carboxamide] | < 10 µM | 
28 | Oc1ccc(Cl)c(Cl)c1C(O)c1cn[nH]c1 (centres unmarked) [Compound 56, 3,4-dichloro-2-[hydroxy(1H-pyrazol-4-yl)methyl]phenol] | < 10 µM | 
29 | C[C@H](NC(=O)[C@H]1CCCNC1)c1c(O)ccc(Cl)c1Cl [Compound 80, (3S)-N-[(1S)-1-(2,3-dichloro-6-hydroxyphenyl)ethyl]piperidine-3-carboxamide] |  | IC50 (Kv1.3 potassium channel; Table 7): < 10 µM
30 | CN(C(=O)C1CNC1)C(c1ccncc1)c1c(O)ccc(Cl)c1Cl (centres unmarked) [Compound 71, N-[(2,3-dichloro-6-hydroxyphenyl)(pyridin-4-yl)methyl]-N-methylazetidine-3-carboxamide] | < 30 µM | 
31 | Cn1cc(C(c2ccncc2)c2c(O)ccc(Cl)c2Cl)cn1 (centres unmarked) [Compound 74, 3,4-dichloro-2-[(1-methyl-1H-pyrazol-4-yl)(pyridin-4-yl)methyl]phenol] | < 30 µM | 
